ChEMBL document CHEMBL1201862, “PubChem BioAssay data set” (2004)
Calls of active or inactive are those of the source.

Key:
[1] = target: T1, DNA repair protein RAD52 homolog (Homo sapiens, UniProt P43351); format: functional, biochemical
T1 sequence (P43351 whole entry): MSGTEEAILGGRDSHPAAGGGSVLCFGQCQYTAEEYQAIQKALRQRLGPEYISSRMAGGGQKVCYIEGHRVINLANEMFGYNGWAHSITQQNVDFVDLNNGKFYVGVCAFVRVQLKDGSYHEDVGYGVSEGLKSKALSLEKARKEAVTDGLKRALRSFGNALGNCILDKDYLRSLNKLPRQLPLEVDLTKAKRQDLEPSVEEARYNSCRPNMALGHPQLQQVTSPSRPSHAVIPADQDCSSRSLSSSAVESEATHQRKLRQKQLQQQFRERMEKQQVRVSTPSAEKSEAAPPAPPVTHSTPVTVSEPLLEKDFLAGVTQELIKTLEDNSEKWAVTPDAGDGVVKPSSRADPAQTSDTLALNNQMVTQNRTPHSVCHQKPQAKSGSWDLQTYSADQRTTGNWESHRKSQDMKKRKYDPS

[2] = intracellular Trypanosoma cruzi inhibitors in host cells – cell-based, plate reader, cherry-pick samples, set 3, dose response (AID 651818); format: functional;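 note: compounds incubated with infected cells for about four days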
Paired box protein Pax-8 = Paired box protein Pax-8 (Homo sapiens, UniProt Q06710); test: inhibitors of PAX8-driven TPO luciferase reporter, dose response, RMG-I cells, cherry-pick (AID 687027); format: functional, cell-based;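 note: luciferase reporter driven by Pax8 target thyroperoxidase promoter measured by SteadyGlo luminescence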
Chain of Paired box protein Pax-8 (Q06710 whole entry): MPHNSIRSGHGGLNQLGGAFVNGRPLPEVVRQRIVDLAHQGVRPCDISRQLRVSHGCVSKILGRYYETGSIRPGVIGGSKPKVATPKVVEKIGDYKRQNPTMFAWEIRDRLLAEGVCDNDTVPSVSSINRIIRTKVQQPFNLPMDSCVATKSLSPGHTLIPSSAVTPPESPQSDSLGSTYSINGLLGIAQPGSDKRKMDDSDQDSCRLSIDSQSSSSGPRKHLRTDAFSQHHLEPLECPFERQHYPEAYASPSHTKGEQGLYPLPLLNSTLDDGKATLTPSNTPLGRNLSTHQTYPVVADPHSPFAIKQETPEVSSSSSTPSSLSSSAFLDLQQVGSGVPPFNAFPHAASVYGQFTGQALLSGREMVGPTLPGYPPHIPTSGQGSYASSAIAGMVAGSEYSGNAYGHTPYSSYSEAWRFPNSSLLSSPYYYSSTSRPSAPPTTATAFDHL

[3] = NIH:OVCAR-3 ovarian cancer cell cytotoxicity, dose response, PAX8 inhibitor project, plate reader, dry powder samples (AID 743044); format: functional, cell-based
Nonstructural protein 1 = Nonstructural protein 1 (Influenza A virus, UniProt Q194T2); format: functional, Influenza A virus (A/California/07/2009(H1N1))
Chain of Nonstructural protein 1 (Q194T2 whole entry): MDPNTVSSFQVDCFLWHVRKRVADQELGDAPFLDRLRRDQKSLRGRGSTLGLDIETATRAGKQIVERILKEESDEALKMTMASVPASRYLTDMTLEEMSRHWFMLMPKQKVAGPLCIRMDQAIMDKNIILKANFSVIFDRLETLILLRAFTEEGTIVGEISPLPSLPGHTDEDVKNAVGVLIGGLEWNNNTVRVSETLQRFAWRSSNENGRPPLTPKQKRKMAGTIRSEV

[4] = target: T2, Microphthalmia-associated transcription factor (Homo sapiens, UniProt O75030); test: TRPM1 promoter luciferase signal decrease, dose response, MITF inhibitor project, cell-based, SK-MEL-5, cherry-picked, set 3 (AID 493073); format: functional
T2 sequence (O75030 whole entry): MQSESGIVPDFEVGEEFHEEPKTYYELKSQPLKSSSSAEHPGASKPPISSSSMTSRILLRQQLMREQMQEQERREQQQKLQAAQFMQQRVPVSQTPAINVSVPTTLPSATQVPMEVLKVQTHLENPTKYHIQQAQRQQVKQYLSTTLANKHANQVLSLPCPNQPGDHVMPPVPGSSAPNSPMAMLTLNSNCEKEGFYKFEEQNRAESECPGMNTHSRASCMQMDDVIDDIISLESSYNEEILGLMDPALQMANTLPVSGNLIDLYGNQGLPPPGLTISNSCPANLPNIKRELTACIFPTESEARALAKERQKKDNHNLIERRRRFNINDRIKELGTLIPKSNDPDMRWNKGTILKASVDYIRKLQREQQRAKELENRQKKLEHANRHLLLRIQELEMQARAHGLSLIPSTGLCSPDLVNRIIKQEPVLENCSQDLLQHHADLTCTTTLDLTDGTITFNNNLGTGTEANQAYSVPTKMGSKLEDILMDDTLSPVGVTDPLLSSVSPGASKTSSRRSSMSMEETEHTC

[5] = HepG2 cell cytotoxicity, dose response, cytotoxicity control, plate reader, dry powder samples (AID 1159569); format: functional, cell-based;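 note: inhibitor potency with signal falling toward the positive control level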
[6] = P. falciparum Dd2 growth inhibitors, dose response, SYBR Green, cherry-picked samples (AID 1159567); format: functional, cell-based
[7] = P. falciparum 3D7-ScDHODH growth inhibitors, dose response, SYBR Green, dry powder samples (AID 1159570); format: functional, cell-based;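 note: parasite growth measured after 72 hours of compound exposure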
[8] = P. falciparum ATP4 D1247Y mutant growth inhibitors, dose response, NITD609-resistant line, SYBR Green, dry powder (AID 1159571); format: functional, cell-based;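 note: parasites synchronized at ring stage by sorbitol before testing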
[9] = P. falciparum Dd2 growth inhibitors, dose response, SYBR Green, dry powder samples (AID 1159566); format: functional, cell-based;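 note: potency for growth inhibition with lower SYBR green DNA signal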
[10] = Luminescence Cell-Based Dose Confirmation HTS to Identify Inhibitors of Platelet Dense Granule Release. [Related pubchem assays: 1663 (Primary HTS), 1678 (Summary of Project)]; format: functional
INS1 = test: beta cell apoptosis inhibitors, cytokine rescue, dose response, luminescence, retest (AID 449756); format: functional, cell-based; details: Rattus norvegicus;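 note: cell death triggered by IL-1 beta plus TNF-alpha plus IFN-gamma mixture; protective hits raise ATP signal compared with cytokine alone wells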
[11] = target: Luciferin 4-monooxygenase (Photinus pyralis, UniProt P08659); test: firefly luciferase enzyme inhibitors, dose response, biochemical, luminescence (AID 1891)
Chain of Luciferin 4-monooxygenase (P08659 whole entry): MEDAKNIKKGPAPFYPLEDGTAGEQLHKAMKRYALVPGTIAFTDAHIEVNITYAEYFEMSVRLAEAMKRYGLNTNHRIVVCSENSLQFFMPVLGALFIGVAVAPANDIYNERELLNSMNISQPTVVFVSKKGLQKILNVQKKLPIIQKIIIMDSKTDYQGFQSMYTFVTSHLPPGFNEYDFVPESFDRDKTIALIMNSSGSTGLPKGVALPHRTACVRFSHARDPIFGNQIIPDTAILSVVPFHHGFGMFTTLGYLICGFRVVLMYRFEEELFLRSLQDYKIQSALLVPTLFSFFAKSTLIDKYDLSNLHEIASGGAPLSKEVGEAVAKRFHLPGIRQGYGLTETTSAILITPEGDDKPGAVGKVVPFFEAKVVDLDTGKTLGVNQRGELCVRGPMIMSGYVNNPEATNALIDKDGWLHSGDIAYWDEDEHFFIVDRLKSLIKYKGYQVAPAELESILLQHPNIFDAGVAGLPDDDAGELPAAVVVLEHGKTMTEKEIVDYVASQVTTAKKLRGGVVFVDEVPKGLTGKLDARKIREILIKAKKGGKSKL

[12] = target: T3, Ubiquitin-conjugating enzyme E2 N (Homo sapiens, UniProt P61088); format: functional;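 note: Dose-response confirmation in a TR-FRET assay detecting UBC13-driven polyubiquitin chain formation, inhibition measured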
T3 sequence (P61088 whole entry): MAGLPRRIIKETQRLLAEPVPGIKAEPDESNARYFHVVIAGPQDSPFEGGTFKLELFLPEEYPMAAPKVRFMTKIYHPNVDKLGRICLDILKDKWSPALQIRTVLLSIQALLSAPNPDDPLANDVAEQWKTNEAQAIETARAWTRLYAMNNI

[13] = microbe, parasite or virus in culture; format: functional; details: Mycobacterium tuberculosis
[14] = target: Induced myeloid leukemia cell differentiation protein Mcl-1 (Homo sapiens, UniProt Q07820); format: functional
Chain of Induced myeloid leukemia cell differentiation protein Mcl-1 (Q07820 whole entry): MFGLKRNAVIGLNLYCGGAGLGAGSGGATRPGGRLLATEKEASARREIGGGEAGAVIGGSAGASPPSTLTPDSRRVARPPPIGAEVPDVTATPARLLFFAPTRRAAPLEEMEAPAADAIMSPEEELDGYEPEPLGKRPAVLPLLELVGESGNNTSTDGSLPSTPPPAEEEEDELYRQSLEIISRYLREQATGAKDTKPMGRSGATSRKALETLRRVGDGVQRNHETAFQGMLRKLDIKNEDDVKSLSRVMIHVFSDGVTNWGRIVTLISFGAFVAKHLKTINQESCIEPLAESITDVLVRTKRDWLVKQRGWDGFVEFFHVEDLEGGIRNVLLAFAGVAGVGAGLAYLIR

[15] = cytotoxicity toward NIH3T3 fibroblasts, dose response, counter-screen, cell-based, ATP luminescence, mouse fibroblasts (AID 2010); format: functional;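 note: cells exposed to compound for about 90 hours before reading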
[16] = inhibitors of intracellular T. cruzi replication, confirmation, NIH3T3 host cells, beta-gal luminescence (AID 2044); format: functional, cell-based;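 note: intracellular parasites grown in NIH/3T3 mouse fibroblasts as host cells; luminescent beta-galactosidase reporter signal from transgenic T. cruzi replicating inside host cells; inhibitors lower the luminescence signal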
[17] = target: T4, Short transient receptor potential channel 4 (Mus musculus, UniProt Q9QUQ5); test: mouse TRPC4 channel activators, dose response, cell-based, HEK293 TRPC4/mu-opioid, Fluo-4 calcium (AID 434937); format: functional
T4 sequence (Q9QUQ5 whole entry): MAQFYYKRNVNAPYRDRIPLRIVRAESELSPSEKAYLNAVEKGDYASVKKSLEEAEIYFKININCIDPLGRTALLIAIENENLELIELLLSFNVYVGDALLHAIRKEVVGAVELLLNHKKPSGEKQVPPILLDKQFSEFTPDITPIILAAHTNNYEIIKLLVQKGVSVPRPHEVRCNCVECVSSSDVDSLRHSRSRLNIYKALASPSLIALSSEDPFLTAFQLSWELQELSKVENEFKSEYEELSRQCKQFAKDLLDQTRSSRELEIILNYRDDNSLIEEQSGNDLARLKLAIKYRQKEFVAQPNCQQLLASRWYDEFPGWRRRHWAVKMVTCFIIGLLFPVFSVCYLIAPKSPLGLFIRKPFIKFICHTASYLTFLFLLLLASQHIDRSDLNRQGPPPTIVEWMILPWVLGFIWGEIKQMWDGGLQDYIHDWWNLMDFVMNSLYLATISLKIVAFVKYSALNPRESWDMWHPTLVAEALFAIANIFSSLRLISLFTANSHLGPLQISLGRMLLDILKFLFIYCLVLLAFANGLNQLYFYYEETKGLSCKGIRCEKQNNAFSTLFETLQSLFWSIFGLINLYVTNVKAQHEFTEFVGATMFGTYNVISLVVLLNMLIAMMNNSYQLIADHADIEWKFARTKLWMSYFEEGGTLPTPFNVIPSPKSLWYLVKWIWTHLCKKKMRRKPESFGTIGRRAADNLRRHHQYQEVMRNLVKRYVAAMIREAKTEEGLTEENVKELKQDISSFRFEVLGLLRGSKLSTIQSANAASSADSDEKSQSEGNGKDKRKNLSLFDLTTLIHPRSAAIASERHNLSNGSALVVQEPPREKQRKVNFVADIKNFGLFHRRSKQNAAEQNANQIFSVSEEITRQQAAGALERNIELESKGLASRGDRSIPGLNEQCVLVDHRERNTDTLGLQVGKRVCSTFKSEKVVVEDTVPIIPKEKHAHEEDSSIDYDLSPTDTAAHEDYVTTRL

[18] = inhibitors of firefly luciferase expression or activity, dose response, H4 neuroglioma cells, luminescence (AID 1990); format: functional, cell-based
[19] = Luminescence Cell-Based Dose Response HTS to Identify Inhibitors of 5'UTR Stem-Loop Driven Prion Protein mRNA Translation in H4 Neuroglioblastoma Cells. [Related pubchem assays: 1827 (Project Summary), 1813 (Primary HTS)]; format: functional
[20] = inhibitors of SNCA 5'UTR-driven reporter translation, confirmation, H4 neuroglioma cells, luminescence (AID 1988); format: functional, cell-based
Cytochrome P450 2D6 = Cytochrome P450 2D6 (Homo sapiens, UniProt P10635);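 note: CYP2D6 member of a cytochrome P450 panel assay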
Chain of Cytochrome P450 2D6 (P10635 whole entry): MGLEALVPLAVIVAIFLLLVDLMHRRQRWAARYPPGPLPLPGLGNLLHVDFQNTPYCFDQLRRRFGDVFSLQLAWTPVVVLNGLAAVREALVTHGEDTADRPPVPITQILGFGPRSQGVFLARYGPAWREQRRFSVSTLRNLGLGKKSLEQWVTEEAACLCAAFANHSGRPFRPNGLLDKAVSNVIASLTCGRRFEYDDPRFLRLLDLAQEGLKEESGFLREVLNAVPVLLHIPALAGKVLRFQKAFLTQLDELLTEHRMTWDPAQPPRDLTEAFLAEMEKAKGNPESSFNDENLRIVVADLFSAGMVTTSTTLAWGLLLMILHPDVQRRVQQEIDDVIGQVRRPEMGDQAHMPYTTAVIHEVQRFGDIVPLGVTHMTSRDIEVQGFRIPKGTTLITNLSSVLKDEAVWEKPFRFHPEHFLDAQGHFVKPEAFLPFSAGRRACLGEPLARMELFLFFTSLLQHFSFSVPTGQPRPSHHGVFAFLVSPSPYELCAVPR

CC(CC(=O)c1ccc(F)cc1)N1CCN(c2ccccc2)CC1 (configuration not stated)
AC50 [1]: 34.3 µM (active)

C[C@H](CO)N1C[C@H](C)[C@H](CN(C)C(=O)Nc2cccc3ccccc23)Oc2c(NC(=O)Nc3ccc(C(F)(F)F)cc3)cccc2C1=O
AC50 [2]: 6.42 µM (active)

COc1ccc(S(=O)(=O)Nc2ccc3c(c2)C(=O)N([C@H](C)CO)C[C@@H](C)[C@@H](CN(C)Cc2ccc(C(F)(F)F)cc2)OCCCC[C@H](C)O3)cc1
AC50 (Paired box protein Pax-8): 3.43 µM (active)
AC50 [3]: 5.6 µM (active)

COc1ccc2nc(NN=C(C)c3ccccn3)cc(C)c2c1
IC50 (Nonstructural protein 1): 7.94 µM (active)

C[C@H](CO)N1C[C@H](C)[C@H](CN(C)C(=O)Nc2ccc(F)cc2)Oc2c(NC(=O)Nc3cccc4ccccc34)cccc2C1=O
AC50 [2]: 1.79 µM (active)

S=C=Nc1cccc(C2(N3CCCCC3)CCCCC2)c1 [METAPHIT METHANESULFONATE]
AC50 [4]: 7.36 µM (active)

COc1cccc(NC(=O)N2[C@H](CO)[C@H](c3ccccc3)[C@H]2CNCC(C)C)c1
AC50 [5]: 85.6 µM (active)
AC50 [6]: 1.78 µM (active)
AC50 [7]: 1.35 µM (active)
AC50 [8]: 1.26 µM (active)
AC50 [9]: 0.974 µM (active)

COc1cccc(/C=N/Nc2ccnc(O)n2)c1O
EC50 [10]: 10.7 µM (active)
AC50 (INS1): 0.67 µM (active)
EC50 [11]: > 112 µM (not active)
IC50 (Nonstructural protein 1): 10.6 µM (active)

COC(=O)C1=C(c2ccc(OCc3ccccc3)cc2)C[C@@H]2CC[C@H]1N2C(=O)NC1CCN(Cc2ccccc2)CC1
IC50 [12]: > 20 µM (inactive)
AC50 (INS1): 3.96 µM (active)
CC50 [13]: 17.6 µM (active)

NCCCC[C@@H]1NC(=O)c2cc([N+](=O)[O-])cc(F)c2NCCCC[C@@H](C(N)=O)NC(=O)[C@H](CCC(N)=O)NC1=O
IC50 [12]: > 20 µM (inactive)
AC50 [1]: 8.88 µM (active)

Cc1ccc(NS(=O)(=O)c2cc([N+](=O)[O-])ccc2NNC(=S)Nc2cccc(Cl)c2)c(C)c1
IC50 [14]: 5.74 µM (not active)
IC50 (Nonstructural protein 1): 17 µM (active)

Cc1cc2ccccc2n1CCNC(=O)C(C)Oc1ccccc1 (configuration not stated)
EC50 [15]: 13.8 µM (active)
EC50 [16]: 0.705 µM (active)
IC50 (Nonstructural protein 1): 64.6 µM (active)

COc1ccc(CN(C)C[C@@H]2OCCCC[C@@H](C)Oc3ccc(NC(=O)Nc4ccc(C(F)(F)F)cc4)cc3C(=O)N([C@H](C)CO)C[C@@H]2C)cc1
AC50 [2]: 2.48 µM (active)

C[C@@H]1CN([C@H](C)CO)C(=O)Cc2cc(NC(=O)Cc3cn(C)c4ccccc34)ccc2O[C@H]1CN(C)Cc1ccc(-c2ccccc2)cc1
AC50 [2]: 4.23 µM (active)

C#Cc1cccc(C(=O)NC2CCCN(C3Cc4ccccc4C3)C2)c1 (configuration not stated)
EC50 [17]: 0.596 µM (active)

CCN(CCCNS(=O)(=O)c1cc(-c2cc(C)no2)ccc1C)Cc1ccccc1
EC50 [17]: 0.299 µM (active)

CC(N)Cc1c[nH]c2cc3c(cc12)OCCO3 (configuration not stated)
EC50 [17]: 1.33 µM (active)

C[N+]1(CC(=O)NNc2c3ccccc3nc3ccccc23)CCOCC1
AC50 [1]: 2.83 µM (active)

O=C(CN1C(=O)C2CCCCC2C1=O)Nc1nc(-c2ccccn2)cs1 (configuration not stated)
EC50 [18]: > 120 µM (not active)
EC50 [19]: 14.3 µM (active)
EC50 [20]: > 120 µM (not active)
IC50 (Nonstructural protein 1): 16 µM (active)

CC(CN1CCCC(C(N)=O)C1)c1ccccc1 (configuration not stated)
EC50 [17]: 1.19 µM (active)

C1CCCCCC(NCCN2CCNCC2)CCCCC1
AC50 [1]: 23.1 µM (active)

CC1CN(C(=O)CCC(=O)NCCCN2CCC(Cc3ccccc3)CC2)c2cc(Cl)ccc2O1 (configuration not stated)
IC50 [12]: > 20 µM (inactive)
AC50 [4]: 16.2 µM (active)

C[C@@H]1CN([C@H](C)CO)C(=O)c2cccc(NC(=O)CCCCCC(=O)Nc3ccccc3N)c2O[C@@H]1CN(C)Cc1ccc(-c2ccccc2)cc1
AC50 [2]: 4.22 µM (active)

O=[N+]([O-])c1ccc(N=Nc2ccc(O)c3ccccc23)cc1
IC50 (Nonstructural protein 1): 25.9 µM (active)

CCN1C(NCc2ccc(OC)cc2)=N[C@@H](CCc2ccccc2)[C@H](C(=O)NCc2ccc(OC)cc2)[C@H]1C
IC50 [12]: > 20 µM (inactive)

COc1ccc(CNn2c(C)nc3ccccc3c2=O)cc1
IC50 [12]: > 20 µM (inactive)
AC50 (Cytochrome P450 2D6): 25.1 µM (inconclusive)

CCOc1ccccc1C1CC(c2ccc(Cl)cc2)Nc2nc(N)nn21 (configuration not stated)
EC50 [17]: 11.9 µM (active)

C[C@H]1CN([C@@H](C)CO)C(=O)c2cccc(NC(=O)c3nc4ccccc4s3)c2O[C@H]1CN(C)C(=O)Nc1ccc(C(F)(F)F)cc1
AC50 [2]: 3.86 µM (active)
